Measurements published in paper PMC8286840, “Identifying SARS-CoV-2 antiviral compounds by screening for small molecule inhibitors of Nsp3 papain-like protease” (Biochemical Journal, 2021).
Where a name gives a salt, the structure may show the parent alone. Read-outs that look alike come from different tables or passages of the source.

Experiments:
[1] = biological target: T1, SARS-CoV-2 PLpro (nsp3 1564–1878) (Severe acute respiratory syndrome coronavirus 2, UniProt P0DTD1); test: biochemical; set-up: FRET-quenched peptide (Pro3) cleavage by PLpro, 10 min pre-incubation, slope over 20 min, normalised to no-compound control; conditions: read-out: % of control remaining
[2] = biological target: T1, SARS-CoV-2 PLpro (nsp3 1564–1878); test: biochemical; set-up: FRET-quenched peptide (Pro3) cleavage by PLpro, 10 min pre-incubation, slope over 20 min, normalised to no-compound control; conditions: read-out: % of control remaining; remark: listed apart in the source

CC(C)(C)n1nc(-c2cccc3ccccc23)c2c(N)ncnc21 [1-Naphthyl PP1 - 1-(1,1-Dimethylethyl)-3-(1-naphthalenyl)-1H-pyrazolo[3,4-d]pyrimidin-4-amine]
remaining activity at 1.25 µM ([1]; Well no.=2674, low concentration screen): 98%
remaining activity at 3.75 µM ([2]; Well no.=2674, high concentration screen): 98.4%

CC1CCN(CC[C@H]2CCCN2S(=O)(=O)c2cccc(O)c2)CC1 [SB 269970 hydrochloride]
remaining activity at 1.25 µM ([1]; Well no.=1220, low concentration screen): 102%
remaining activity at 3.75 µM ([2]; Well no.=1220, high concentration screen): 104%

C#C[C@]1(O)C=C[C@H]2[C@@H]3CCC4=CC(=O)CC[C@@H]4[C@H]3CC[C@@]21CC [Gestodene]
remaining activity at 1.25 µM ([1]; Well no.=5260, low concentration screen): 93.5%
remaining activity at 3.75 µM ([2]; Well no.=5260, high concentration screen): 96.8%

C=C[C@@](C)(/C=C/c1ccc(O)cc1)CCC=C(C)C [Bakuchiol]
remaining activity at 1.25 µM ([1]; Well no.=4001, low concentration screen): 101%
remaining activity at 3.75 µM ([2]; Well no.=3520, high concentration screen): 101%
remaining activity at 3.75 µM ([2]; Well no.=4001, high concentration screen): 97.7%

O=C(O)CNC(=O)c1cccc(O)c1 [3-Hydroxyhippuric acid]
remaining activity at 1.25 µM ([1]; Well no.=7219, low concentration screen): 102%
remaining activity at 3.75 µM ([2]; Well no.=7219, high concentration screen): 99.6%

CC1=CC(=O)c2c(O)cccc2C1=O [Plumbagin]
remaining activity at 1.25 µM ([1]; Well no.=3351, low concentration screen): 85.5%
remaining activity at 3.75 µM ([2]; Well no.=3351, high concentration screen): 79.6%

CC1=C(/C=C/C(C)=C/C=C/C(C)=C/C(=O)Nc2ccc(O)cc2)C(C)(C)CCC1 [4-Hydroxyphenylretinamide]
remaining activity at 1.25 µM ([1]; Well no.=4432, low concentration screen): 99%
remaining activity at 3.75 µM ([2]; Well no.=4432, high concentration screen): 97.3%

O=C(O)c1ccc(O)c2ncccc12 [IOX1]
remaining activity at 1.25 µM ([1]; Well no.=5529, low concentration screen): 102%
remaining activity at 3.75 µM ([2]; Well no.=5529, high concentration screen): 104%

CN1CCC(=C2c3ccccc3CCn3c(C=O)cnc32)CC1 [Alcaftadine]
remaining activity at 1.25 µM ([1]; Well no.=6573, low concentration screen): 94.6%
remaining activity at 3.75 µM ([2]; Well no.=6573, high concentration screen): 91.1%

CC[C@H](NC(=O)[C@H](C)NC)C(=O)N1C[C@@H](O)C[C@H]1Cc1c(-c2[nH]c3cc(F)ccc3c2C[C@@H]2C[C@H](O)CN2C(=O)[C@H](CC)NC(=O)[C@H](C)NC)[nH]c2cc(F)ccc12 [Birinapant]
remaining activity at 1.25 µM ([1]; Well no.=6542, low concentration screen): 95%
remaining activity at 3.75 µM ([2]; Well no.=6542, high concentration screen): 75.1%

C=CC(=O)c1ccc2ccccc2c1 [ZM 449829 - 1-(2-Naphthalenyl)-2-propen-1-one]
remaining activity at 1.25 µM ([1]; Well no.=2388, low concentration screen): 105%
remaining activity at 3.75 µM ([2]; Well no.=2388, high concentration screen): 106%

CN(C)CCCN1c2ccccc2CCc2ccccc21 [Imipramine hydrochloride]
remaining activity at 1.25 µM ([1]; Well no.=1061, low concentration screen): 100%
remaining activity at 3.75 µM ([2]; Well no.=1061, high concentration screen): 97.7%

COc1cc(C(C)=O)ccc1OCCCN1CCC(c2noc3cc(F)ccc23)CC1 [Iloperidone]
remaining activity at 1.25 µM ([1]; Well no.=7333, low concentration screen): 102%
remaining activity at 3.75 µM ([2]; Well no.=7333, high concentration screen): 91.9%

C[C@]12Cc3c[nH]nc3C[C@@H]1CC[C@@H]1[C@@H]2CC[C@@]2(C)[C@H]1CC[C@]2(C)O [Stanozolol]
remaining activity at 1.25 µM [1]: 94%
remaining activity at 3.75 µM [2]: 95.3%

NC(=O)c1cccc(-c2cccc(OC(=O)NC3CCCCC3)c2)c1 [URB597]
remaining activity at 1.25 µM ([1]; Well no.=5889, low concentration screen): 109%
remaining activity at 1.25 µM ([1]; Well no.=8102, low concentration screen): 95.4%
remaining activity at 3.75 µM ([2]; Well no.=5889, high concentration screen): 109%
remaining activity at 3.75 µM ([2]; Well no.=8102, high concentration screen): 94.7%

O=C(O)Cc1ccccc1Nc1c(Cl)cccc1Cl [Diclofenac]
remaining activity at 1.25 µM ([1]; Well no.=1978, low concentration screen): 102%
remaining activity at 3.75 µM ([2]; Well no.=1978, high concentration screen): 102%

CC(C)=CCCC1=CC(=O)c2c(O)ccc(O)c2C1=O [Deoxyshikonin]
remaining activity at 1.25 µM ([1]; Well no.=3164, low concentration screen): 86.1%
remaining activity at 3.75 µM ([2]; Well no.=3164, high concentration screen): 85.7%

O=C(c1ccc(F)cc1)C1CCN(CCn2c(=O)[nH]c3ccccc3c2=O)CC1 [Ketanserin tartrate]
remaining activity at 1.25 µM ([1]; Well no.=1515, low concentration screen): 93.9%
remaining activity at 3.75 µM ([2]; Well no.=1515, high concentration screen): 95.4%

CCCCCCCCCCCCCC/C(C(=O)O)=C(\C)C(=O)O [Chaetomellic acid A]
remaining activity at 1.25 µM ([1]; Well no.=3141, low concentration screen): 95.8%
remaining activity at 3.75 µM ([2]; Well no.=3141, high concentration screen): 96%

c1ccc(C2CN3CCSC3=N2)cc1 (centres unmarked) [Tetramisole hydrochloride]
remaining activity at 1.25 µM ([1]; Well no.=1521, low concentration screen): 99.3%
remaining activity at 3.75 µM ([2]; Well no.=1521, high concentration screen): 100%

O=C(O)C1=CCCN(CCON=C(c2ccccc2)c2ccccc2)C1 [NO-711 hydrochloride]
remaining activity at 1.25 µM ([1]; Well no.=1149, low concentration screen): 92.4%
remaining activity at 3.75 µM ([2]; Well no.=1149, high concentration screen): 88.4%

Cc1cc(C(C)(C)C)c(O)c(C)c1CC1=NCCN1 [Oxymetazoline hydrochloride]
remaining activity at 1.25 µM ([1]; Well no.=896, low concentration screen): 103%
remaining activity at 3.75 µM ([2]; Well no.=896, high concentration screen): 101%
